Where two headings read alike, the source gives them in different places.
Tests used:
[1] = cited from earlier work; for clearance: in adults
[2] = cited from earlier work; for plasma bound fraction: value used in the flux equations; for Plasma protein binding: Product Information
[3] = human pharmacokinetics after oral dosing (literature); assay type: in vivo, humans; conditions: for Z, target local free (unbound) concentration = peak plasma free drug concentration: peak plasma concentration*(100-PBF)/100
Text: Z is expressed in units of ng/ml and is the target local free ( i.e. unbound) concentration that is expected to have a therapeutic effect against the skin condition. In the case of PPAR gamma agonists, Z should correspond to the peak plasma free drug concentration generated by dosing these drugs orally to treat effectively Type II diabetes mellitus. The appropriate value of Z may be determined experimentally in vivo by conventional known means using standard protocols.
C is expressed in units of ml/hr and is the rate of clearance of the drug substance. Clearance may be determined experimentally in vivo by conventional known means using standard tests. For example it can be determined from the plasma concentration in response to a defined input of drug using the equation given below: Clearance (ml/hr)=Input rate (ng/hr)/Total plasma concentration (ng/ml)

[4] = system: fasting plasma glucose; conditions: type II diabetes patients, cited from earlier work

Z, target local free (unbound) concentration = peak plasma free drug concentration [3] [ng/mL] | clearance ([3]; human, plasma, oral, in adults, from Clearance/Bioavailability and bioavailability with a meal) [mL/min] | SMILES | Peak plasma concentration ([1]; 8 mg dose) | clearance [1] [mL/h] | plasma bound fraction [2] [%] | time to achieve a reduction of fasting plasma glucose by 2 mmol 1 ([4]; 2 mg b.i.d. dosage regimen) | time to achieve a reduction of fasting plasma glucose by 2 mmol 1 ([4]; 4 mg b.i.d. dosage regimen) | Peak plasma concentration ([1]; 30 mg dose) | Plasma protein binding [2] [%] | Peak plasma concentration ([1]; 400 mg dose) | Bioavailability ([1]; with a meal) [%] | Clearance/Bioavailability ([1]; with a meal) [mL/min]
1.7 |  | CN(CCOc1ccc(CC2SC(=O)NC2=O)cc1)c1ccccn1 (stereo not drawn) [rosiglitazone, 5-[4-[2-(N-methyl-N-(2-pyridyl)amino)ethoxy]benzyl]thiazolidine-2,4-dione] | about 600 ng/ml | 2780 | 99.72 | about 8 weeks | about 4 weeks |  |  |  |  | 
3.5 |  | CCc1ccc(CCOc2ccc(CC3SC(=O)NC3=O)cc2)nc1 (stereo not drawn) [pioglitazone, 5-[4-[2-(5-ethyl-2-pyridyl)ethoxy]benzyl]thiazolidine-2,4-dione] |  | 2400 | 99.5 |  |  | about 700 ng/ml | > 99 |  |  | 
7.5 | 425 | Cc1c(C)c2c(c(C)c1O)CCC(C)(COc1ccc(CC3SC(=O)NC3=O)cc1)O2 (stereo not drawn) [troglitazone, 5-[[4-[(3,4-dihydro-6-hydroxy-2,5,7,8-tetramethyl-2H-1-benzopyran-2-yl)methoxy]phenyl]methyl]-2,4-thiazolidinedione] |  |  | 99.5 |  |  |  | 99 | about 1500 ng/ml | ~85 | 500

Source: patent publication US20060159648A1, “Novel therapeutic method and compositions for topical administration” (priority 2003, published 2006)
